The values below come from article PMC12004451, “Characterization of the Two-Domain Peptide Binding Mechanism of the Human CGRP Receptor for CGRP and the Ultrahigh Affinity ssCGRP Variant” (Biochemistry, 2025).

The subject of data set [1] is CGRPR (CLR:RAMP1) in COS-7 cells. The data set is described as follows: CAMYEL cAMP biosensor competition assay with N-terminal TMD-binding agonist AM(13-36). In kind it is cell-based, human. As to conditions: 30 μM, end point cAMP biosensor assay. How it is done:
COS-7 cells were seeded in a 96-well white plate (Corning; Costar 3917) with a density of 20,000 cell/well, 100 μL/well, and incubated at 37 °C and 5% CO2 for 24 h. Cells were transiently transfected with 250 ng DNA total with 25 ng CLR, 25 ng RAMP, 125 ng CAMYEL biosensor, 75 ng empty pcDNA3.1(+) vector, and 375 ng branched PEI per well. Transfected cells were incubated at 37 °C and 5% CO2. […] The preincubation was followed by addition of coelenterazine h (10 μM) and simultaneous addition of 30 μM AM(13-36) agonist and antagonist as indicated, and incubated for 1 h at room temperature in total volume of 50 μL. Emissions at 475 and 535 nm were read in a PHERAstar FS plate reader (BMG Labtech, Ortenberg, Germany). The buffer control (no ligand) was subtracted from each data set and plotted with the corresponding 475/535 BRET ratio in GraphPad Prism.

The subject of data set [2] is calcitonin receptor (CTR) ECD. Conditions: cited from earlier work. From the text:
Similar to ssCGRP, the C-terminal segment of sCT has increased affinity for the receptor ECD, bein ...

For data set [3] the following is noted: cited from earlier work. From the text:
Our analysis of the ssCGRP agonist and its truncated antagonist forms advance our understanding of their potential as long-acting therapeutics. It is widely accepted that long residence time is a desirable property of drugs.[61],[62] This is particularly true for antagonists, but there can also be value in long residence time GPCR agonists.[63],[64] […] The ssCGRP(8-37) antagonist has a CGRPR residence-time longer than the plasma half-life and the ssCGRP agonist can signal for longer than t ...

Ends that are not written are not given here.

Consider “AM(13-36): C-terminally truncated adrenomedullin agonist comprising the TMD-binding portion (SFGCRFGTCTVQKLAHQIYQFTDK; ends and bridges not checked; cysteine pairing not given here; UniProt P35318 107-130, looked up, fragment)”, for which the “agonism of the CGRPR (cAMP)” value in data set [1] is “agonism”.

Salmon calcitonin [sCT]: the “higher affinity of C-terminal segment for receptor ECD than hCT” value in data set [2] is on record as about 50 fold.

As to `CC(C)C[C@H](NC(=O)CNC(=O)[C@H](C)NC(=O)[C@H](CC(C)C)NC(=O)[C@H](CCCNC(=N)N)NC(=O)[C@H](Cc1cnc[nH]1)NC(=O)[C@@H](NC(=O)[C@@H](NC(=O)[C@@H]1CSSC[C@H](NC(=O)[C@H](C)N)C(=O)N[C@@H](CC(=O)O)C(=O)N[C@@H]([C@@H](C)O)C(=O)N[C@@H](C)C(=O)N[C@@H]([C@@H](C)O)C(=O)N1)C(C)C)[C@@H](C)O)C(=O)N[C@@H](CC(C)C)C(=O)N[C@@H](CO)C(=O)N[C@@H](CCCNC(=N)N)C(=O)N[C@@H](CO)C(=O)NCC(=O)NCC(=O)N[C@H](C(=O)N[C@H](C(=O)N[C@@H](CCCCN)C(=O)N[C@@H](CC(N)=O)C(=O)N[C@@H](CC(N)=O)C(=O)N[C@@H](Cc1ccccc1)C(=O)N[C@H](C(=O)N1CCC[C@H]1C(=O)N[C@H](C(=O)N[C@@H](CC(N)=O)C(=O)N[C@H](C(=O)NCC(=O)N[C@@H](CO)C(=O)N[C@@H](CCCCN)C(=O)N[C@@H](C)C(=O)N[C@@H](Cc1ccccc1)C(N)=O)C(C)C)[C@@H](C)O)C(C)C)C(C)C)C(C)C` [CGRP(1-37), αCGRP(1-37)], the plasma half-life in data set [3] is reported as about 20 min.
